Test results from the NIST ThermoML archive (doi:10.1016/j.fluid.2017.06.019).
Numbers after ± are expanded uncertainties.

Details: Coaxial cylinder method

CCC [propane]
thermal conductivity [W/m/K]
Details	366.45 K	367.32 K
4010 kPa, Gas	–	0.04654 ± 0.012
4012 kPa, Gas	–	0.04665 ± 0.012
4013 kPa, Liquid	0.1345 ± 0.012	–
4014 kPa, Gas	–	0.04687 ± 0.0077
4014 kPa, Liquid	0.132 ± 0.012	–
4015 kPa, Liquid	0.1298 ± 0.012	–
4016 kPa, Liquid	0.127 ± 0.012	–
4017 kPa, Liquid	0.1241 ± 0.012	–
4018 kPa, Liquid	0.1223 ± 0.011	–
4019 kPa, Liquid	0.1202 ± 0.011	–
4020 kPa, Liquid	0.1175 ± 0.011	–
4021 kPa, Liquid	0.1145 ± 0.011	–
4022 kPa, Liquid	0.1126 ± 0.011	–
4023 kPa, Liquid	0.1108 ± 0.01	–
4024 kPa, Liquid	0.1089 ± 0.01	–
4025 kPa, Gas	–	0.04792 ± 0.012
4025 kPa, Liquid	0.107 ± 0.01	–
4026 kPa, Gas	–	0.05076 ± 0.011
4026 kPa, Liquid	0.1052 ± 0.01	–
4027 kPa, Gas	–	0.05394 ± 0.011
4027 kPa, Liquid	0.1035 ± 0.01	–
4028 kPa, Gas	–	0.05642 ± 0.01
4028 kPa, Liquid	0.1018 ± 0.0097	–
4029 kPa, Gas	–	0.05957 ± 0.0093
4029 kPa, Liquid	0.1003 ± 0.0097	–
4030 kPa, Gas	–	0.06288 ± 0.0088
4030 kPa, Liquid	0.09876 ± 0.0096	–
4031 kPa, Gas	–	0.06655 ± 0.0083
4031 kPa, Liquid	0.09718 ± 0.0096	–
4032 kPa, Gas	–	0.06997 ± 0.0078
4032 kPa, Liquid	0.09578 ± 0.0094	–
4033 kPa, Gas	–	0.07414 ± 0.0075
4033 kPa, Liquid	0.09438 ± 0.0091	–
4034 kPa, Gas	–	0.07824 ± 0.0072
4034 kPa, Liquid	0.0931 ± 0.0089	–
4035 kPa, Gas	–	0.08231 ± 0.007
4035 kPa, Liquid	0.09185 ± 0.0087	–
4036 kPa, Gas	–	0.08718 ± 0.0069
4036 kPa, Liquid	0.09064 ± 0.0086	–
4037 kPa, Gas	–	0.09169 ± 0.0069
4037 kPa, Liquid	0.08946 ± 0.0083	–
4038 kPa, Gas	–	0.09661 ± 0.0069
4038 kPa, Liquid	0.0883 ± 0.008	–
4039 kPa, Gas	–	0.1018 ± 0.007
4039 kPa, Liquid	0.08718 ± 0.0079	–
4040 kPa, Gas	–	0.1068 ± 0.0071
4040 kPa, Liquid	0.08608 ± 0.0078	–
4041 kPa, Gas	–	0.1118 ± 0.0073
4042 kPa, Gas	–	0.1171 ± 0.0075
4043 kPa, Gas	–	0.1226 ± 0.0077
4044 kPa, Gas	–	0.1282 ± 0.008
4045 kPa, Gas	–	0.134 ± 0.0084
4045 kPa, Liquid	0.08137 ± 0.0072	–
4046 kPa, Gas	–	0.1397 ± 0.0087
4047 kPa, Gas	–	0.145 ± 0.009
4048 kPa, Gas	–	0.1514 ± 0.0094
4050 kPa, Gas	–	0.1645 ± 0.01
4050 kPa, Liquid	0.0775 ± 0.0069	–
4051 kPa, Gas	–	0.1714 ± 0.011
4052 kPa, Gas	–	0.1781 ± 0.011
4053 kPa, Gas	–	0.1856 ± 0.012
4054 kPa, Gas	–	0.1925 ± 0.012
4055 kPa, Gas	–	0.1998 ± 0.016
4055 kPa, Liquid	0.07438 ± 0.0066	–
4056 kPa, Gas	–	0.2078 ± 0.018
4057 kPa, Gas	–	0.2153 ± 0.018
4057 kPa, Liquid	0.07324 ± 0.0066	–
4058 kPa, Gas	–	0.2233 ± 0.019
4059 kPa, Gas	–	0.2315 ± 0.019
4060 kPa, Liquid	–	0.2315 ± 0.017
4061 kPa, Liquid	–	0.2164 ± 0.016
4062 kPa, Liquid	–	0.2079 ± 0.015
4063 kPa, Liquid	–	0.1998 ± 0.014
4064 kPa, Liquid	–	0.1925 ± 0.014
4065 kPa, Liquid	0.06968 ± 0.0056	0.1857 ± 0.013
4070 kPa, Liquid	0.06809 ± 0.0052	–
4075 kPa, Liquid	0.0668 ± 0.0048	–
4080 kPa, Liquid	0.0658 ± 0.0046	–
4085 kPa, Liquid	0.06508 ± 0.0045	–
4090 kPa, Liquid	0.06449 ± 0.0044	–
4095 kPa, Liquid	0.06445 ± 0.0043	–
4100 kPa, Liquid	0.06429 ± 0.0043	–
4105 kPa, Liquid	0.06425 ± 0.0043	–
4110 kPa, Liquid	0.06421 ± 0.0042	–
4115 kPa, Liquid	0.06418 ± 0.0042	–
4120 kPa, Liquid	0.06414 ± 0.0042	–
4125 kPa, Liquid	0.0641 ± 0.0042	–
4130 kPa, Liquid	0.06408 ± 0.0042	–
4140 kPa, Liquid	0.06408 ± 0.0042	–
4150 kPa, Liquid	0.06404 ± 0.0042	–
4160 kPa, Liquid	0.064 ± 0.0042	–
4170 kPa, Liquid	0.06396 ± 0.0042	–
4180 kPa, Liquid	0.06392 ± 0.0042	–
4190 kPa, Liquid	0.06394 ± 0.0042	–
4200 kPa, Liquid	0.06392 ± 0.0042	–
4210 kPa, Liquid	0.06392 ± 0.0042	–
4220 kPa, Liquid	0.06388 ± 0.0042	–
4230 kPa, Liquid	0.06388 ± 0.0042	–
4240 kPa, Liquid	0.06387 ± 0.0042	–
4250 kPa, Liquid	0.06387 ± 0.0042	–
4260 kPa, Liquid	0.0639 ± 0.0042	–
4270 kPa, Liquid	0.0639 ± 0.0042	–
4280 kPa, Liquid	0.0639 ± 0.0042	–
4290 kPa, Liquid	0.0639 ± 0.0042	–
4300 kPa, Liquid	0.06392 ± 0.0042	–
4330 kPa, Liquid	0.06396 ± 0.0042	–
4400 kPa, Liquid	0.0641 ± 0.0042	–
4410 kPa, Liquid	0.06416 ± 0.0042	–
4477 kPa, Liquid	0.06435 ± 0.0042	–
4491 kPa, Liquid	0.06439 ± 0.0042	–
